Results: patent US8404665B2, “In vivo use of glutathione S-transferase activated nitric oxide donors” (University of Utah Research Foundation, priority 2002, dated 2013)

How the values were obtained:
[1] = test system: 58 human cancer cell lines; type: cell-based
Description: Anticancer screen of JS-K against the NCI 58 human cancer cell lines. Cells initially maintained in multiple T150 tissue-culture flasks were detached from the flasks by addition of 2-3 ml of 0.05% trypsin-EDTA when cells reached 70-90% confluency. Thereafter, trypsin was inactivated by addition of 10 ml of RPMI 1640 medium containing 5% fetal bovine serum. All cells were then transferred and seeded onto 96-well microtiter plates at densities between 5,000 and 30,000 cells per well. Three cell lines were inoculated per plate. The cells were grown in RPMI 1640 supplemented with 5% fetal bovine serum and 2 mM L-glutamine for 24 h at 37° C. to allow stabilization prior to addition of JS-K. A total of 58 human cancer cell lines were used for the broad screening. The stock solution of JS-K in DMSO was serially diluted with the RPMI 1640 medium and added immediately to the microtiter plates to produce five concentrations of JS-K, i.e., 10^−4, 10^−5, 10^−6, 10^−7 and 10^−8 M. JS-K was incubated with cells for 48 h.
At the end of incubation, the cells were fixed in situ by 10% trichloroacetic acid, and washed five times with water and dried. Sulforhodamine B (0.4% in 1% acetic acid), a protein stain binding to basic amino acids of cellular macromolecules, was added to each well, and incubated for 10 min at room temperature. Unbound Sulforhodamine B is removed by washing five times with acetic acid. Then the plates were air-dried. Bound stain is solubilized with Tris buffer, and the optical densities were read at 515 nm. The optical densities generated from Sulforhodamine B staining are a function of cell mass and growth rate (Monks et al., 1991). Thus cells with small mass (e.g., leukemias) or relatively slow division rate (e.g., renal RXF393 and lung cancer HOP-92) were inoculated at the relatively high densities of 20,000-30,000 cells per well, while more rapidly dividing cells (e.g., colon HT29 and HCT-116 cell lines, and lung NCI-H460 cells) were inoculated at 5,000 cells per well. For the suspended leukemia cell subpanel, the cells were fixed to the bottom of the microtiter well by adding cold trichloroacetic acid (final concentration 16%) at the end of the drug-incubation period.
The dose-response curve is created by plotting the % growth against the log10 of the corresponding JS-K concentrations for each cell line by disease subpanel group. Three horizontal lines are provided at the % growth values of 50, 0 and −50, respectively. Thus the molar JS-K concentrations corresponding to points where the curves cross these lines represent the interpolated values that cause 50% growth inhibition (GI50, the JS-K concentration causing a 50% reduction in the net protein increase in control cells), total growth inhibition (TGI, the JS-K concentration causing amount of protein at the end of incubation to be equal to the amount at the beginning) and 50% cell killing (LC50, the JS-K concentration causing a 50% reduction in the protein of treated cells at the end of the drug incubation, compared with that at the beginning, indicating a net loss of cells following drug treatment), respectively.

rabbit thoracic aorta = assay: Rabbit aortic rings bioassay of NO activity (vasorelaxation)
From the text: Preparation of Rabbit Aortic Rings for Bioassay of NO Activity. The preparation of rabbit aortic rings was similar to that described previously (Jia L and Furchgott R F (1993) J Pharmnacol Exp Ther 267: 371-378.), and the animal protocol was approved by the Institutional Animal Care and Use Committee. Briefly, a male New Zealand rabbit was anesthetized by an intravenous injection of sodium pentobarbital into a marginal ear vein. The descending thoracic aorta was quickly removed. The aortic rings (2 mm in length) were prepared and mounted in 20 ml of Krebs' solution (bubbled with 95% O2/5% CO2, 37° C.) in organ chambers. […] Rings were allowed to equilibrate for at least 90 min before experiments were initiated. Basal tension was maintained at approximately 3 g. To allow studies on relaxation, each ring was precontracted submaximally by addition of 50-100 nM phenylephine to the bathing solution. When the contraction had reached a steady state, JS-K was added successively to the bathing solution until the maximal relaxation was obtained. Hb and ODQ were also added to the bathing solution to investigate the mechanisms of action of JS-K.
The ability of JS-K to function as a NO donor was examined in the rabbit thoracic aorta model. […]

SMILES: CCOC(=O)N1CCN(/[N+]([O-])=N/Oc2ccc([N+](=O)[O-])cc2[N+](=O)[O-])CC1 [JS-K, O^2-(2,4-dinitrophenyl) 1-[(4-ethoxycarbonyl)piperazin-1-yl]diazen-1-ium-1,2-diolate]
- CC50 [1]: 29.5 µM
- relative sensitivity to cytostatic and cytotoxic effects [1]: most sensitive
- GI50 ([1]; 58 human cell lines, 48 h): 1.3 µM
- mean TGI ([1]; 58 human cell lines, 48 h): 6.6 µM
- inhibition against prostate cancer cell lines ([1]; prostate cancer cell lines): moderate inhibition
- LC50s ([1]; some cell lines within the colon, melanoma and breast cancer subpanels): more than 100 μM
- reversibility of vasoactivity (rabbit thoracic aorta; Hb and ODQ added): reversible in the presence of a NO scavenger and a specific inhibitor of the NO-sGC-cGMP pathway
- concentration at which vasorelaxation reached a maximum (rabbit thoracic aorta; rings precontracted with phenylephine): 100 nM
